Assay results: US20090155881A1, “CELL-FREE PROTEIN SYNTHESIS METHOD AND CELL-FREE PROTEIN SYNTHESIS REACTION SOLUTION USING ADENOSINE 3',5'-BISPHOSPHATE” (priority 2007, published 2009)

Test system: mRNA
Test: mRNA degradation suppressing effect in the cell-free protein synthesis reaction solution (Transdirect insect cell); remaining mRNA detected by agarose electrophoresis and EtBr staining
Format: biochemical, Spodoptera frugiperda
Settings: for degradation suppressing effect: after 240 minutes
Experimental: Using Transdirect insect cell (SHIMADZU CORPORATION), each of the following reaction solutions was prepared in a scale of 50 μL. Transdirect insect cell is a cell-free protein synthesis reaction solution containing an extract from Sf21, and contains a potassium salt, a magnesium salt, adenosine triphosphate, guanosine triphosphate, creatine phosphate, creatine kinase, an amino acid component, a tRNA, a foreign mRNA, and a buffer as ingredients other than the extract derived from Sf21.
As the RNase inhibitor, an RNase inhibitor derived from a human placenta (TAKARA BIO) was used, and as the pAp, Adenosine 3′,5′-diphosphate sodium salt (SIGMA-ALDRICH) was used, and prepared as an aqueous solution of 100 mM. Each reaction solution was subjected to a translation reaction at 25° C.
For each reaction solution, reaction solutions after 0, 60, and 120 minutes from starting of a translation reaction were recovered. 10 μL of the recovered reaction solution was collected into 20 μL of TRIzol LS Reagent (Invitrogen), and the whole RNA was extracted. The extracted RNA was dissolved in 10 μL of pure water.
To each solution of extracted RNA, 4 μL of a loading buffer (Wako Pure Chemical Industries) was added, and the total was subjected to electrophoresis (a TAE buffer, 1% agarose gel). The RNA separated by electrophoresis was detected by EtBr (ethidium bromide) staining.
By the same steps as Steps 1 to 3 of Example 1, a translation reaction was conducted for the following reaction solutions.
As for Reaction Solution 6, pAp was added before the reaction so that the final concentration was 5 mM, and after 60 minutes from starting of the reaction, 2.5 μL of a 100 mM pAp aqueous solution prepared in step 3 was added. As a result, the pAp concentration of supplemented pAp excluding the pAp that was present from the initial stage of the reaction was 5 mM.
Steps 4 and 5 as same as those in Example 1 were conducted except that for each reaction solution, the reaction solution was recovered after 0, 120, 180, and 240 minutes from starting of the translation reaction.
In Reaction Solutions 7 and 8, a 4M aqueous LiCl solution was prepared for stock, and using the stock solution, the final concentration in the reaction solution was adjusted to 50 mM.
Steps 4 and 5 were conducted in the same manner as in Example 1 except that for each reaction solution, the reaction solution was recovered after 0, 180, and 240 minutes from starting of the translation reaction.

`Nc1ncnc2c1ncn2[C@@H]1O[C@H](COP(=O)(O)O)[C@@H](OP(=O)(O)O)[C@H]1O` [pAp, adenosine 3′,5′-bisphosphate] was tested. Which degradation suppressing effect (5 mM pAp plus supplementation of 5 mM pAp after 60 minutes (Reaction Solution 6)) did it give?
The degradation suppressing effect was “sustained”.

What about the “RNA degradation suppressing effect” value (5 mM pAp, supplementation not conducted (Reaction Solution 4), after 180 minutes) of the same molecule?
The value was “lost with time”.

What about the degradation suppressing effect (10 mM pAp, supplementation not conducted (Reaction Solution 5)) of the same molecule?
Its degradation suppressing effect is “sustained”.

And the “mRNA remaining (electrophoresis)” value (pAp 5 mM alone, no LiCl (lane 4), after 180 minutes)?
The value was “almost all the mRNA was degraded”.

And the “mRNA degradation suppressing effect” value (pAp final concentration 5 mM, no RNase inhibitor (Reaction Solution 4), reaction times 60 and 120 minutes, 25° C.)?
Its value is “apparent degradation suppressing effect”.

Which “mRNA remaining (electrophoresis)” value (LiCl 50 mM alone, no pAp (lane 7), after 180 minutes) does the source give for `[Cl-].[Li+]` [LiCl, lithium chloride] here?
Its value is “almost all the mRNA was degraded”.

B1: RNase inhibitor: RNase inhibitor derived from a human placenta (TAKARA BIO) (protein, UniProt P13489 2-461, looked up)
Ribonuclease inhibitor: SLDIQSLDIQCEELSDARWAELLPLLQQCQVVRLDDCGLTEARCKDISSALRVNPALAELNLRSNELGDVGVHCVLQGLQTPSCKIQKLSLQNCCLTGAGCGVLSSTLRTLPTLQELHLSDNLLGDAGLQLLCEGLLDPQCRLEKLQLEYCSLSAASCEPLASVLRAKPDFKELTVSNNDINEAGVRVLCQGLKDSPCQLEALKLESCGVTSDNCRDLCGIVASKASLRELALGSNKLGDVGMAELCPGLLHPSSRLRTLWIWECGITAKGCGDLCRVLRAKESLKELSLAGNELGDEGARLLCETLLEPGCQLESLWVKSCSFTAACCSHFSSVLAQNRFLLELQISNNRLEDAGVRELCQGLGQPGSVLRVLWLADCDVSDSSCSSLAATLLANHSLRELDLSNNCLGDAGILQLVESVRQPGCLLEQLVLYDIYWSEEMEDRLQALEKDKPSLRVIS
B1 was tested. Which “mRNA degradation suppressing effect” value (RNase inhibitor final concentration 1 U/μL, no pAp (Reaction Solution 3 vs Reaction Solution 2), 0, 60, 120 minutes) did it give?
The value was “not observed”.
